Experimental data as given in ChEMBL document CHEMBL5291721, “A preclinical secondary pharmacology resource illuminates target-adverse drug reaction associations of marketed drugs” (Nat Commun, 2023).

How the values were obtained:
[1] = target: Cannabinoid receptor 1 (Homo sapiens, UniProt P21554); assay type: functional, cell-based
[2] = target: T1, 5-hydroxytryptamine receptor 1A (Homo sapiens, UniProt P08908)
T1 sequence (P08908 whole entry): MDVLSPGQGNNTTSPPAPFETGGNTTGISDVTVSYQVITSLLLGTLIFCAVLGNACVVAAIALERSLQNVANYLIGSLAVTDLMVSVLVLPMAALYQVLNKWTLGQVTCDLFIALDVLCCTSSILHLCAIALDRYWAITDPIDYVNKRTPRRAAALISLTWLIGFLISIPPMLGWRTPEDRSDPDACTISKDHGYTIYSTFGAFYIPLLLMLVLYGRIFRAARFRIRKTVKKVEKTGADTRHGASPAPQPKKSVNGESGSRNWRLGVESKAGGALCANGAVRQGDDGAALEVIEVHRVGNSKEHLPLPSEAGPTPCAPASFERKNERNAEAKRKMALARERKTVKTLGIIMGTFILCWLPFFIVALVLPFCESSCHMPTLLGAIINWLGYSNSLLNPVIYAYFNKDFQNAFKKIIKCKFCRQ

[3] = target: T2, Cholecystokinin receptor type A (Homo sapiens, UniProt P32238)
T2 sequence (P32238 whole entry): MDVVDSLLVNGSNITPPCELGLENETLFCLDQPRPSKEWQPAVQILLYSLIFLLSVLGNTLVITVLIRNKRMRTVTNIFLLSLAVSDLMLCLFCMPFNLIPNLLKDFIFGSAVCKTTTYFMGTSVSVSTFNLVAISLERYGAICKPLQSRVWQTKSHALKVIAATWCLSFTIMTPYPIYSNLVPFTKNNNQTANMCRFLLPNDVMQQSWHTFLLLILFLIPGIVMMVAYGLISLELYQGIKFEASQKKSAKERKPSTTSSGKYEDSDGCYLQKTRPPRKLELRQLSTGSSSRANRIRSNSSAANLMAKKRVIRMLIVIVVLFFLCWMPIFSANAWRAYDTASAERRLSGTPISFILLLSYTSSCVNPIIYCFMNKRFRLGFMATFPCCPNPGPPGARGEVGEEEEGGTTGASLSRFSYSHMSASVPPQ

[4] = target: T3, B1 bradykinin receptor (Homo sapiens, UniProt P46663)
T3 sequence (P46663 whole entry): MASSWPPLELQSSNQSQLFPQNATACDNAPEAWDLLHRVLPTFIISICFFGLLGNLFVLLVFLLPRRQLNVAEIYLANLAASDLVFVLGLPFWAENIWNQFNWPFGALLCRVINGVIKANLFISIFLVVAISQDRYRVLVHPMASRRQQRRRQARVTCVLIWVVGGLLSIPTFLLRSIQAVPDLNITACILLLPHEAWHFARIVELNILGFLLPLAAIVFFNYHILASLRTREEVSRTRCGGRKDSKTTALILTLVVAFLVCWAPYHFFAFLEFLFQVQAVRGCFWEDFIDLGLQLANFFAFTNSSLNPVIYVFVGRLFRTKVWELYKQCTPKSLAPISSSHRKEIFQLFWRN

[5] = target: T4, Gastric inhibitory polypeptide receptor (Homo sapiens, UniProt P48546)
T4 sequence (P48546 whole entry): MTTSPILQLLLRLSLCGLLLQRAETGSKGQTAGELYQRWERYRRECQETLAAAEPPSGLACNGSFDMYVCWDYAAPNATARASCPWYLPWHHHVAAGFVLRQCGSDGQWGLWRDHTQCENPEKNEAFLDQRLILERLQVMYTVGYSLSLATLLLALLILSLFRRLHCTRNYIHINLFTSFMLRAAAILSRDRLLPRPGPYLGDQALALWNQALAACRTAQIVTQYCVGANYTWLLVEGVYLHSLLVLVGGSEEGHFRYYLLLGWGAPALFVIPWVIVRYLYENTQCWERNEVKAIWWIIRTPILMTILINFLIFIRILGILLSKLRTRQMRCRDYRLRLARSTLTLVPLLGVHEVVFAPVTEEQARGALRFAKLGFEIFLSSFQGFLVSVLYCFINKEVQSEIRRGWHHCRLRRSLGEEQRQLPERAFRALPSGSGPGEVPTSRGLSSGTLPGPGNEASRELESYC

[6] = target: T5, Muscarinic acetylcholine receptor M2 (Homo sapiens, UniProt P08172)
T5 sequence (P08172 whole entry): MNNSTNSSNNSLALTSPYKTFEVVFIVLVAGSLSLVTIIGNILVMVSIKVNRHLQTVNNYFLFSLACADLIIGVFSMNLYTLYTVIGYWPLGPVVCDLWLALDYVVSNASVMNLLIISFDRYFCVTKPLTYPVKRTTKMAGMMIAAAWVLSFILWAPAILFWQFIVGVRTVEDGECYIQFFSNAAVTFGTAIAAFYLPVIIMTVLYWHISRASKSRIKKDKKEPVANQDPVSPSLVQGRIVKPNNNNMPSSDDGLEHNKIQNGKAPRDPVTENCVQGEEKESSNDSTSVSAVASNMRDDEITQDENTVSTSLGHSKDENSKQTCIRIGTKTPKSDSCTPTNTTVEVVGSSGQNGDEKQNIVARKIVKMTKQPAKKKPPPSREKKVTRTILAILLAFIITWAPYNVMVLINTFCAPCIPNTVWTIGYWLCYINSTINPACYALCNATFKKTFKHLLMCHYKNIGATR

[7] = target: Mu-type opioid receptor (Homo sapiens, UniProt P35372); assay: biochemical; assay type: functional
[8] = target: T6, Muscarinic acetylcholine receptor M1 (Homo sapiens, UniProt P11229); assay type: functional, cell-based
T6 sequence (P11229 whole entry): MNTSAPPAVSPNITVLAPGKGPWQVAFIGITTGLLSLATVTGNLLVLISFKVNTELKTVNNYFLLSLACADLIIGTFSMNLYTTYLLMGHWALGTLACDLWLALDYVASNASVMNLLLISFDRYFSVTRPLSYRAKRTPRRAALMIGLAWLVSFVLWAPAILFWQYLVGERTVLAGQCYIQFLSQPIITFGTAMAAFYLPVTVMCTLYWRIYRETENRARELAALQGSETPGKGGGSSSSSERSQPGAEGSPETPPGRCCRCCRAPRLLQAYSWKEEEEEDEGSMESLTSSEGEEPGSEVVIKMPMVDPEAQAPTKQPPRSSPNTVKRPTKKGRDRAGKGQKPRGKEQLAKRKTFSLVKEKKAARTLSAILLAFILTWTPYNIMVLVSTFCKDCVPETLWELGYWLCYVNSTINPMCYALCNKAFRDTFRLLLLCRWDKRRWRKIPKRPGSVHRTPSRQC
Note: assay procedure not described here.

Sequence of Cannabinoid receptor 1 (P21554 whole entry): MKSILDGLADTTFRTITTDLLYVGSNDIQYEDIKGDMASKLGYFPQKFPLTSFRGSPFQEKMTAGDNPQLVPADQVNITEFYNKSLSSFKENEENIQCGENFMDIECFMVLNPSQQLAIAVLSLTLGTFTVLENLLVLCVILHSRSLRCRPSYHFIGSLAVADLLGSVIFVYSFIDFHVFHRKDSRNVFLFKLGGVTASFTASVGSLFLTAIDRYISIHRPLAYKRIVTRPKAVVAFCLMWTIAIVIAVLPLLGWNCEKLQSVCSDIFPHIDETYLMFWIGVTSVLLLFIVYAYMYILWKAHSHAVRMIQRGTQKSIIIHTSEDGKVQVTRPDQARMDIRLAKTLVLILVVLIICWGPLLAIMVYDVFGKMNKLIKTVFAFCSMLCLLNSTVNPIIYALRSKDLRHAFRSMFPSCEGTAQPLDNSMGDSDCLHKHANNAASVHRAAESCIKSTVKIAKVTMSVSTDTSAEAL
Sequence of Mu-type opioid receptor (P35372 whole entry): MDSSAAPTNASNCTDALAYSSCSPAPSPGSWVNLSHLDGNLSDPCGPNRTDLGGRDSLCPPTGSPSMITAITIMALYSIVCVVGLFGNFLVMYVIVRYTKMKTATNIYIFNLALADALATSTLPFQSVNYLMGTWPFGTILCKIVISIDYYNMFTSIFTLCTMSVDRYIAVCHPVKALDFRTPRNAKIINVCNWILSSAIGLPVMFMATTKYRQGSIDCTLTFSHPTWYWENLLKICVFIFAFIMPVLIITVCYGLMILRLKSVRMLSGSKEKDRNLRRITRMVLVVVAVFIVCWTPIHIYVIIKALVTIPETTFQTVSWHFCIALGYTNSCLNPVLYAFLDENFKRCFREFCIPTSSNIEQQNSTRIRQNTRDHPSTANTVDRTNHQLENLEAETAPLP

SMILES	AC50 [1] [µM]	AC50 [2] [µM]	AC50 [3] [µM]	AC50 [4] [µM]	AC50 [5] [µM]	AC50 [6] [µM]	AC50 [7] [µM]	AC50 [8] [µM]
CCOc1nc2cccc(C(=O)O)c2n1Cc1ccc(-c2ccccc2-c2nnn[nH]2)cc1	> 30	> 10	> 30	> 30	> 30	> 10	–	–
CCCc1nc2c(C)cc(-c3nc4ccccc4n3C)cc2n1Cc1ccc(-c2ccccc2C(=O)O)cc1	> 30	> 10	2.43	> 30	> 30	> 10	3.7	–
CCCNC(=O)NS(=O)(=O)c1ccc(Cl)cc1 [CHLORPROPAMIDE]	> 30	> 10	> 30	> 30	> 30	–	–	–
Cc1nc(Nc2ncc(C(=O)Nc3c(C)cccc3Cl)s2)cc(N2CCN(CCO)CC2)n1 [DASATINIB]	> 30	21.9	10.2	> 10	–	> 10	–	–
O=C(O)Cc1ccccc1Nc1c(Cl)cccc1Cl [DICLOFENAC]	> 30	> 10	> 30	> 30	> 30	> 10	–	–
O=C(O)Cc1ccccc1Oc1ccc(Cl)cc1Cl [FENCLOFENAC]	> 30	> 10	> 30	> 30	> 30	> 10	–	23.6
Cc1ccc(C)c(OCCCC(C)(C)C(=O)O)c1 [GEMFIBROZIL]	> 30	> 10	> 30	> 30	> 30	> 10	–	–
CC[C@H](C)C(=O)O[C@H]1C[C@@H](C)C=C2C=C[C@H](C)[C@H](CC[C@@H]3C[C@@H](O)CC(=O)O3)[C@H]21 [LOVASTATIN]	> 30	> 10	> 30	> 30	> 30	> 10	–	–
CC[C@@H](CO)NC(=O)[C@@H]1C=C2c3cccc4c3c(cn4C)C[C@H]2N(C)C1 [METHYSERGIDE]	> 30	0.192	> 30	> 30	> 30	> 10	–	–
CC(CN1c2ccccc2Sc2ccccc21)N(C)C (stereo not given) [PROMETHAZINE]	> 30	6.7	> 30	> 30	> 30	0.161	–	–
CN(CCOc1ccc(CC2SC(=O)NC2=O)cc1)c1ccccn1 (stereo not given) [ROSIGLITAZONE]	> 30	> 10	> 30	> 30	> 30	> 10	> 30	–
CC(C)[C@H](N)C(=O)OCCOCn1cnc2c(=O)[nH]c(N)nc21 [VALACYCLOVIR]	> 30	> 10	> 30	> 30	> 30	> 10	–	–
O=C1Cc2cc(CCN3CCN(c4nsc5ccccc45)CC3)c(Cl)cc2N1 [ZIPRASIDONE]	> 30	0.008	> 30	> 30	> 30	> 10	–	12.9
